Source: patent US4117118A, “Organic compounds” (Sandoz Ltd., priority 1976, dated 1978)

How the values were obtained:
[1] = amorphous form
Description: Behaviour in the thin layer chromatogram (substance spots made visible with iodine vapour): […]

[2] = test system: Aspergillus niger; conditions: standard tests

For C/C=C/C[C@@H](C)[C@@H](O)[C@H]1C(=O)N[C@@H](C)C(=O)N(C)CC(=O)N(C)[C@@H](CC(C)C)C(=O)N[C@@H](C(C)C)C(=O)N(C)[C@@H](CC(C)C)C(=O)N[C@@H](C)C(=O)N[C@H](C)C(=O)N(C)[C@@H](CC(C)C)C(=O)N(C)[C@@H](CC(C)C)C(=O)N(C)[C@@H](C(C)C)C(=O)N1C [S 7481/F-2, Cyclosporin B], the “Solubility in most of the usual organic solvents” value [1] was “readily soluble”, the “Solubility in petroleum ether and water” value [1] was “practically insoluble” and the “Inhibition of the growth of Aspergillus niger” value [2] was “inhibition of the growth”.
